Measured values: PMC3748009, “Novel Small-Molecule AMP-Activated Protein Kinase Allosteric Activator with Beneficial Effects in db/db Mice” (PLoS ONE, 2013)

Assays:
[1] = system: rat primary hepatocytes; assay: AMPK and ACC phosphorylation in rat primary hepatocytes; assay type: cell-based; settings: 3 hr
From the text: (§1) These assays were described previously, [25].

[2] = target: T1, AMPK α1(1–335) (Homo sapiens, UniProt Q13131); assay: Dephosphorylation of AMPK α1 truncation by PP2Cα; assay type: biochemical; parameters: dephosphorylation by PP2Cα on AMPK α1(1–394) and α1(1–335); settings: Fig. S1B
T1 sequence (Q13131 10-344): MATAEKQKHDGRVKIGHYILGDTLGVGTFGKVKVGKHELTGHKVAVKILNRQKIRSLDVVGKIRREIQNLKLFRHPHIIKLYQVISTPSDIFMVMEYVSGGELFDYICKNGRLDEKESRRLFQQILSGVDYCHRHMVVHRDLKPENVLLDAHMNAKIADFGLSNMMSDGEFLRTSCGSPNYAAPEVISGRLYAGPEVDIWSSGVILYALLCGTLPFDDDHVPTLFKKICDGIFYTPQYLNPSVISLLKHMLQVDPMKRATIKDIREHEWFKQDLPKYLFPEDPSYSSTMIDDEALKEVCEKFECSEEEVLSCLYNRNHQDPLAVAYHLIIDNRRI
Experimental: (§2) The dephosphorylation of AMPK was performed as described previously, [24].

[3] = target: AMPK α1(1–394) (Homo sapiens, UniProt Q13131); assay: Dephosphorylation of AMPK α1 truncation by PP2Cα; assay type: biochemical; parameters: dephosphorylation by PP2Cα on AMPK α1(1–394) and α1(1–335); settings: Fig. S1A
Sequence of AMPK α1(1–394) (Q13131 10-403): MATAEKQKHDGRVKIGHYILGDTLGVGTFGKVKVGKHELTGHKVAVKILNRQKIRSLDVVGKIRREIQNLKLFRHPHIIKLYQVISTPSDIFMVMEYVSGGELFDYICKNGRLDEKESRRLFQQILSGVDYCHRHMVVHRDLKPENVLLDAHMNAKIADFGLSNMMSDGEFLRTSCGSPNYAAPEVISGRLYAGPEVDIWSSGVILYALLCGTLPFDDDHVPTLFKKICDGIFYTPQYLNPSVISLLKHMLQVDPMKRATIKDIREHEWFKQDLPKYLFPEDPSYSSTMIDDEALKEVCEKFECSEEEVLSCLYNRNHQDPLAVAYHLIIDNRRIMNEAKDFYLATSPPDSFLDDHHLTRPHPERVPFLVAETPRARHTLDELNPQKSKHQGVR
Experimental: as §2

[4] = system: L6 myotubes; assay: Adenine nucleotide measurement (ADP/ATP ratio) in L6 myotubes; assay type: cell-based; settings: various concentrations, 3 hr, vs DMSO
From the text: as §1

[5] = system: C57BKS db/db mice; assay: 5-week chronic study in db/db mice; assay type: in vivo, mouse
From the text: db/db (Jackson Laboratory, BarHarbor, ME, USA) mice were bred at the Shanghai Institute of Materia Medica (Chinese Academy of Sciences, Shanghai, People's Republic of China).The animals were maintained under a 12 hr light-dark cycle with free access to water and food. Animal experiments were approved by the Animal Care and Use Committee, Shanghai Institute of Materia Medica. At 8 weeks of age, male db/db mice were randomly assigned to the various treatment groups by body weight and glucose levels (n = 6-8). The treatment groups for the 5-week chronic study were as follows: vehicle (0.5% methylcellulose), ZLN024 (15 mg/kg) and metformin (250 mg/kg). The treatments were orally administered once daily. The body weights and food intake were measured daily. After 5 weeks of treatment, the mice were killed after a final dose, and the tissues were collected for further analysis. This assay was described previously. For details on primer sequences, see Legend for Table S1. These assays were described previously, [25].

[6] = system: L6 myotubes; assay: AMPK and ACC phosphorylation (Western blot) in L6 myotubes; assay type: cell-based
From the text: as §1

[7] = system: rat primary hepatocytes; assay: Fatty acid synthesis ([14C] acetate incorporation) in rat primary hepatocytes; assay type: cell-based; settings: insulin 10 nmol/l, 24 hr exposure
Experimental: Fatty acid synthesis in rat primary hepatocytes was assayed by measuring [^14C] acetate incorporation into lipids. Rat hepatocytes were treated for 20 hr with ZLN024 at the concentrations described in FBS-free DMEM with or without 10 nmol/l insulin, followed by 4 hr incubation in fresh medium containing 0.1 µCi/ml sodium [^14C] acetate (3.7×103 Bq/ml). Thereafter, cells were washed three times by ice-cold PBS and analyzed as previously described, [22].

[8] = target: T1, AMPK α1(1–335); assay: SPA, inactive α1 subunit truncation; assay type: biochemical; parameters: α1(1–394), α1(1–335), α1(1–312); made in house
Experimental: Before the SPA assay, 200 nmol/l recombinant AMPK protein (α1β1γ1, α2β1γ1, α1β2γ1, α2β2γ1, α1(1–394), α1(1–335), α1(1–312)) was constructed, expressed, purified and fully phosphorylated as described previously. The SPA reactions were performed in 96-well plates in a final volume of 50 µl containing 20 mmol/l Tris-HCl, pH 7.5, 5 mmol/l MgCl2, 1 mmol/l DTT, 2 µmol/l biotin-SAMS, 2 µmol/l ATP and 7.4×10^3 Bq/well [γ-^33P]ATP. The reactions were initiated by the addition of 50 nmol/l recombinant AMPK protein to the reaction solutions, followed by incubation at 30°C for 2 hr. The reactions were then terminated by the addition of 40 µl of stop solution containing 80 µg streptavidin-coated SPA beads per well, 50 mmol/l EDTA and 0.1% Triton X-100 in PBS, pH 7.5, followed by incubation for 1 hr. Finally, 160 µl of suspension solution containing 2.4 mol/l CsCl, 50 mmol/l EDTA and 0.1% Triton X-100 in PBS, pH 7.5, was added to the reaction solution to suspend the SPA beads completely. The SPA signals were measured in a Wallac Microbeta plate counter (PerkinElmer, Waltham, MA, USA) 30 min later.

[9] = ZLN024 15 mg/kg/day by gavage, 5 weeks

- effect on dephosphorylation of AMPK α1(1–335) by PP2Cα [2]: did not affect the dephosphorylation
- effect on dephosphorylation of AMPK α1(1–394) by PP2Cα [3]: did not affect the dephosphorylation
- maximal activation of α1(1–335) [8]: 2.8 fold
- EC50 ([8]; read-out: EC50, activation of α1(1–335)): 2230 nM
SMILES: Cc1ccc(OCCSc2ncccn2)c(Br)c1 [ZLN024]
- phosphorylation of ACC [1]: obviously increased
- phosphorylation of AMPK [1]: slightly activated
- ADP/ATP ratio [4]: not affected
- ACC phosphorylation in abdominal muscle and liver tissue ([5]; 15 mg/kg/day, 5 weeks): increased
- AMPK phosphorylation in abdominal muscle and liver tissue ([5]; 15 mg/kg/day, 5 weeks): not affected
- body weight compared with the vehicle group [5, 9]: no significant alteration
- food intake compared with the vehicle group [5, 9]: no significant alteration
- reduction of fasting blood glucose ([5]; ZLN024 15 mg/kg/day, 4 weeks, fasted 6 hr, not significant with ANOVA): 15%
- abdominal muscle expression of fatty acid oxidation genes CPT-1, MCAD and LCAD ([5]; ZLN024 15 mg/kg/day, 5 weeks): significantly upregulated
- abdominal muscle expression of mitochondrial biogenesis genes PGC-1α, cyto-c and ATPase ([5]; ZLN024 15 mg/kg/day, 5 weeks): upregulated
- decrease of liver total cholesterol levels ([5]; ZLN024 15 mg/kg/day, 5 weeks): 20%
- liver expression of PEPCK ([5]; ZLN024 15 mg/kg/day, 5 weeks): remained unchanged
- liver expression of anabolic genes FAS, mtGPAT and G6Pase ([5]; ZLN024 15 mg/kg/day, 5 weeks): significantly reduced
- liver expression of catabolic genes CPT1, LCAD, PDK4 and AOX ([5]; ZLN024 15 mg/kg/day, 5 weeks): mildly increased
- liver/body weight reduction vs vehicle ([5]; ZLN024 15 mg/kg/day, 5 weeks): 9%
- reduction of liver triacylglycerol levels ([5]; ZLN024 15 mg/kg/day, 5 weeks): approximately 45%
- liver/body weight (wt/wt) ([5]; ZLN024 15 mg/kg/day, 5 weeks (vehicle 5.3%)): 4.8%
- reduction in glucose tolerance AUC ([5]; ZLN024 15 mg/kg/day, after 4 weeks, i.p. glucose load 1.5 g/kg): approximately 15%
- phosphorylation of AMPK and ACC ([6]; 3 hr incubation, concentration-dependent): stimulated
- time to maximal effect on AMPK and ACC phosphorylation ([6]; ZLN024 20 µmol/l): ≤ 30 min
- time to start of increase of AMPK and ACC phosphorylation ([6]; ZLN024 20 µmol/l): ≤ 15 min
- insulin stimulated synthesis of fatty acid [7]: significantly decreased
